# Molecular target: HCV NS3 protease (UniProt P26663)
# Format: biochemical, HCV genotype 1b
# Design: rows headed: IC50 (μM); IC50 (μM)
# Conditions: Table 8
# Chain of HCV NS3 protease (P26663 1027-1206, other chains not shown): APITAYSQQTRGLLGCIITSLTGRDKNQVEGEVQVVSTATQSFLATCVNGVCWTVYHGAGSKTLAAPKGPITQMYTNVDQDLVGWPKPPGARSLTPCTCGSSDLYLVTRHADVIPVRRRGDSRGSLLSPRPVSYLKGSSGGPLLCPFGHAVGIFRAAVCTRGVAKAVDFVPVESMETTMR
row,SMILES,IC50
1,C=CC1CC1(NC(=O)C1CC(Oc2cc(-c3ccccc3)nc3cc(OC)ccc23)CN1C(=O)C(Nc1ccc(NC(C)=O)cc1)C(C)C)C(=O)O (stereo not drawn) [compound 845],180 nM
2,C=CC1CC1(NC(=O)C1CC(Oc2cc(-c3ccccc3)nc3cc(OC)ccc23)CN1C(=O)C(Nc1ccc2c(c1)OCO2)C(C)C)C(=O)O (stereo not drawn) [compound 846],104 nM
3,C=CC1CC1(NC(=O)C1CC(Oc2cc(-c3ccccc3)nc3cc(OC)ccc23)CN1C(=O)C(NC(=O)OC(C)(C)C)C1CCCCC1)C(=O)O (stereo not drawn) [compound 847],37 nM
4,C=CC1CC1(NC(=O)C1CC(Oc2cc(-c3ccccc3)nc3cc(OC)ccc23)CN1C(=O)C(CC(C)C)NC(=O)OC(C)(C)C)C(=O)O (stereo not drawn) [compound 848],93 nM
5,C=CC1CC1(NC(=O)C1CC(Oc2cc(-c3ccccc3)nc3cc(OC)ccc23)CN1C(=O)C(CC(C)(C)C)NC(=O)OC(C)(C)C)C(=O)O (stereo not drawn) [compound 849],110 nM
6,C=CC1CC1(NC(=O)C1CC(Oc2cc(-c3ccccc3)nc3cc(OC)ccc23)CN1C(=O)C(NC(=O)OC(C)(C)C)C(C)OC(C)(C)C)C(=O)O (stereo not drawn) [compound 850],63 nM
7,C=CC1CC1(NC(=O)C1CC(Oc2cc(-c3ccccc3)nc3cc(OC)ccc23)CN1C(=O)C(NC(=O)OC(C)(C)C)C(C)OC)C(=O)O (stereo not drawn) [compound 851],120 nM
8,C=CC1CC1(NC(=O)C1CC(Oc2cc(-c3ccccc3)nc3cc(OC)ccc23)CN1C(=O)C(NC(=O)OC(C)(C)C)C(C)OC)C(=O)O (stereo not drawn) [compound 852],50 nM
9,C=CC1CC1(NC(=O)C1CC(Oc2cc(-c3ccccc3)nc3cc(OC)ccc23)CN1C(=O)C(NC(=O)OC(C)(C)C)C(C)OCc1ccccc1)C(=O)O (stereo not drawn) [compound 853],170 nM
10,C=CC1CC1(NC(=O)C1CC(Oc2cc(-c3ccccc3)nc3cc(OC)ccc23)CN1C(=O)C(Nc1cccc(-c2ccccc2)c1)C(C)C)C(=O)O (stereo not drawn) [compound 854],370 nM
11,C=CC1CC1(NC(=O)C1CC(Oc2cc(-c3ccccc3)nc3cc(OC)ccc23)CN1C(=O)C(Nc1cccc(CCO)c1)C(C)C)C(=O)O (stereo not drawn) [compound 855],75 nM
12,C=CC1CC1(NC(=O)C1CC(Oc2cc(-c3ccccc3)nc3cc(OC)ccc23)CN1C(=O)C(Nc1ccc(CC#N)cc1)C(C)C)C(=O)O (stereo not drawn) [compound 856],110 nM
13,C=CC1CC1(NC(=O)C1CC(Oc2cc(-c3ccccc3)nc3cc(OC)ccc23)CN1C(=O)C(NC(=O)NC(C)(C)COC)C(C)(C)C)C(=O)O (stereo not drawn) [compound 857],11 nM
14,C=CC1CC1(NC(=O)C1CC(Oc2cc(-c3ccccc3)nc3cc(OC)ccc23)CN1C(=O)C(NC(=O)N(C)C(C)(C)C)C(C)(C)C)C(=O)O (stereo not drawn) [compound 858],205 nM
15,C=CC1CC1(NC(=O)C1CC(Oc2cc(-c3ccccc3)nc3cc(OC)ccc23)CN1C(=O)C(NC1CCCCC1)C(C)C)C(=O)O (stereo not drawn) [compound 859],830 nM
16,C=CC1CC1(NC(=O)C1CC(Oc2cc(-c3ccccc3)nc3cc(OC)ccc23)CN1C(=O)C(Nc1cccc(Oc2ccc(F)cc2)c1)C(C)C)C(=O)O (stereo not drawn) [compound 860],240 nM
17,C=CC1CC1(NC(=O)C1CC(Oc2cc(-c3ccccc3)nc3cc(OC)ccc23)CN1C(=O)C(Nc1cccc(CC#N)c1)C(C)C)C(=O)O (stereo not drawn) [compound 861],170 nM
18,C=CC1CC1(NC(=O)C1CC(Oc2cc(-c3ccccc3)nc3cc(OC)ccc23)CN1C(=O)C(Nc1cc(F)cc(F)c1)C(C)C)C(=O)O (stereo not drawn) [compound 862],230 nM
19,C=CC1CC1(NC(=O)C1CC(Oc2cc(-c3ccccc3)nc3cc(OC)ccc23)CN1C(=O)C(Nc1ccc2ccccc2c1)C(C)C)C(=O)O (stereo not drawn) [compound 863],300 nM
20,C=CC1CC1(NC(=O)C1CC(Oc2cc(-c3ccccc3)nc3cc(OC)ccc23)CN1C(=O)C(Nc1ccccc1F)C(C)C)C(=O)O (stereo not drawn) [compound 864],450 nM
21,C=CC1CC1(NC(=O)C1CC(Oc2cc(-c3ccccc3)nc3cc(OC)ccc23)CN1C(=O)C(NC(=O)OC1CCOC1)C(C)(C)C)C(=O)O (stereo not drawn) [compound 865],20 nM
22,C=CC1CC1(NC(=O)C1CC(Oc2cc(-c3ccccc3)nc3cc(OC)ccc23)CN1C(=O)C(NC(=O)OCC(C)(C)N)C(C)(C)C)C(=O)O (stereo not drawn) [compound 866],200 nM
23,C=CC1CC1(NC(=O)C1CC(Oc2cc(-c3ccccc3)nc3cc(OC)ccc23)CN1C(=O)C(NC(=O)OC1CCOC1)C(C)(C)C)C(=O)O (stereo not drawn) [compound 867],51 nM
24,C=CC1CC1(NC(=O)C1CC(Oc2cc(-c3ccccc3)nc3cc(OC)ccc23)CN1C(=O)C(NC(=O)OC1CCCCC1)C(C)(C)C)C(=O)O (stereo not drawn) [compound 868],30 nM
25,C=CC1CC1(NC(=O)C1CC(Oc2cc(-c3ccccc3)nc3cc(OC)ccc23)CN1C(=O)C(NC(=O)OC1CCCC1)C(C)(C)C)C(=O)O (stereo not drawn) [compound 869],14 nM
26,C=CC1CC1(NC(=O)C1CC(Oc2cc(-c3ccccc3)nc3cc(OC)ccc23)CN1C(=O)C(NC(=O)NC(C)(C)CC)C(C)(C)C)C(=O)O (stereo not drawn) [compound 870],9 nM
27,C=CC1CC1(NC(=O)C1CC(Oc2cc(-c3ccccc3)nc3cc(OC)ccc23)CN1C(=O)C(NC(=O)NC(C)(CC)CC)C(C)(C)C)C(=O)O (stereo not drawn) [compound 871],11 nM
28,C=CC1CC1(NC(=O)C1CC(Oc2cc(-c3ccccc3)nc3cc(OC)ccc23)CN1C(=O)C(NC(=O)NC(C)C(C)(C)C)C(C)(C)C)C(=O)O (stereo not drawn) [compound 872],5 nM
29,C=CC1CC1(NC(=O)C1CC(Oc2cc(-c3ccccc3)nc3cc(OC)ccc23)CN1C(=O)C(NC(=O)NC(C)C(C)(C)C)C(C)(C)C)C(=O)O (stereo not drawn) [compound 873],19 nM

# Same assay, conditions: Table 9
row,SMILES,IC50
1,C=CC1CC1(NC(=O)C1CC(Oc2cc(-c3ccccc3)nc3cc(OC)ccc23)CN1C(=O)C(NC(=O)C(CC(=O)O)C1CCCCC1)C(C)(C)C)C(=O)O (stereo not drawn) [compound 903],5 nM
2,C=CC1CC1(NC(=O)C1CC(Oc2cc(-c3ccccc3)nc3cc(OC)ccc23)CN1C(=O)C(NC(=O)c1cccc(O)c1)C(C)(C)C)C(=O)O (stereo not drawn) [compound 904],95 nM
3,C=CC1CC1(NC(=O)C1CC(Oc2cc(-c3ccccc3)nc3cc(OC)ccc23)CN1C(=O)C(NC(=O)OC1CCC1)C(C)(C)C)C(=O)O (stereo not drawn) [compound 905],29 nM
4,C=CC1CC1(NC(=O)C1CC(Oc2cc(-c3ccccc3)nc3cc(OC)ccc23)CN1C(=O)C(NC(=O)NC(CC)C(C)(C)C)C(C)(C)C)C(=O)O (stereo not drawn) [compound 906],14 nM
5,C=CC1CC1(NC(=O)C1CC(Oc2cc(-c3ccccc3)nc3cc(OC)ccc23)CN1C(=O)C(NC(=O)OC1CCSC1)C(C)(C)C)C(=O)O (stereo not drawn) [compound 907],25 nM
6,C=CC1CC1(NC(=O)C1CC(Oc2cc(-c3ccccc3)nc3cc(OC)ccc23)CN1C(=O)C(NC(=O)c1ccccc1)C(C)(C)C)C(=O)O (stereo not drawn) [compound 908],72 nM
7,C=CC1CC1(NC(=O)C1CC(Oc2cc(-c3ccccc3)nc3cc(OC)ccc23)CN1C(=O)C(NS(=O)(=O)c1ccccc1)C(C)(C)C)C(=O)O (stereo not drawn) [compound 909],36 nM
8,C=CC1CC1(NC(=O)C1CC(Oc2cc(-c3ccccc3)nc3cc(OC)ccc23)CN1C(=O)C(NC(=O)OC(C)C(C)(C)C)C(C)(C)C)C(=O)O (stereo not drawn) [compound 910],56 nM
9,C=CC1CC1(NC(=O)C1CC(Oc2cc(-c3ccccc3)nc3cc(OC)ccc23)CN1C(=O)C(NC(=O)c1cccc(O)c1C)C(C)(C)C)C(=O)O (stereo not drawn) [compound 911],39 nM
10,C=CC1CC1(NC(=O)C1CC(Oc2cc(-c3ccccc3)nc3cc(OC)ccc23)CN1C(=O)C(NS(=O)(=O)c1cccs1)C(C)(C)C)C(=O)O (stereo not drawn) [compound 912],34 nM
11,C=CC1CC1(NC(=O)C1CC(Oc2cc(-c3ccccc3)nc3cc(OC)ccc23)CN1C(=O)C(NC(=O)Nc1nccs1)C(C)(C)C)C(=O)O (stereo not drawn) [compound 913],30 nM
12,C=CC1CC1(NC(=O)C1CC(Oc2cc(-c3ccccc3)nc3cc(OC)ccc23)CN1C(=O)C(NS(=O)(=O)c1sc(NC(C)=O)nc1C)C(C)(C)C)C(=O)O (stereo not drawn) [compound 914],31 nM
13,C=CC1CC1(NC(=O)C1CC(Oc2cc(-c3ccccc3)nc3cc(OC)ccc23)CN1C(=O)C(NC(=O)c1ccc[nH]1)C(C)(C)C)C(=O)O (stereo not drawn) [compound 916],300 nM

# Reference: US6534523B1, “Hepatitis C inhibitor tri-peptides” (Boehringer Ingelheim (Canada) Ltd., priority 1998, dated 2003)
